Results taken from patent publication US4211772A, “Benzopyran glycoside acetals and ketals” (Laboratoires Sarget, priority 1977, dated 1980).
Converted amounts (≈) assume the structure as drawn. Read-outs that look alike come from different tables or passages of the source.

Columns and labels:
Solubilities in water = assay type: physicochemical; settings: water; read-out: Solubilities in water
Aldose Reductase = molecular target: T1, Aldose Reductase (Bos taurus, UniProt P16116); assay: Inhibition of aldose reductase in vitro (enzyme from beef eye lenses, glyceraldehyde substrate); assay type: biochemical; settings: in DMF solution, read-out: percentages of inhibition (aldose reductase)
T1 construct: The enzyme is extracted from beef eye lenses; from tissue; host or cells: beef eye lenses
Excerpt: Inhibition of Aldose Reductase In Vitro
The reoxidation of NADPH coupled to the enzymatic reaction was followed spectrophotometrically at 340 nm.

Wistar EOPS rat = assay: Minimum lethal dose by slow i.v. perfusion in the rat; assay type: in vivo
Method: The minimum lethal dose of compound No. 1 administered by slow i.v. perfusion in the Wistar EOPS rat is in the neighborhood of 15 mg/kg/min. for 30 min.

capillary permeability = assay: Capillaroprotecting effects: capillary permeability; assay type: in vivo, conventional male Wistar rats
Method: (§1) Capillaroprotecting effects
The capillary permeability was determined by the method of Charlier et al, Arch. Inter. Physiol.

carragenin edema = assay: Anti-inflammatory activity: carragenin edema test; assay type: in vivo; settings: for % inhibition of carragenin edema: borate buffer pH 7, 24 h; for inhibition in vivo at 100 mg/kg / inhibition in vivo at 200 mg/kg / inhibition in vivo at 300 mg/kg / inhibition in vivo at 75 mg/kg / inhibition in vivo at 150 mg/kg: Rattus norvegicus, ip
Procedure, shortened: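 Male Wistar EOPS rats receive 0.1 ml of 5% carragenin suspension in physiological serum into the hind-paw metatarsal muscle, with test substance given i.p. in neutralized solution at the same time. Paw edema is measured by plethysmometry at several times after carragenin and reported as % inhibition against pH-matched physiological serum controls.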

galactosemic cataract = assay: Galactosemic cataract in rats; assay type: in vivo, weaning male EOPS Wistar rats; settings: 100 mg/kg/d i.p.
Method: GALACTOSEMIC CATARACT IN RATS
The study was conducted using weaning male EOPS Wistar rats having an initial weight of between 45 and 50 g. The animals were fed a high vitamin and high protein regimen containing 20% by weight of galactose. The first signs of cataracts, detected by the ophthalmoscope, appeared beginning with the third day. The animals received daily i.p. doses of the test compound, the treatment being started four days after the commencement of the galactosemic regimen. The evolution of the cataract was followed by the detection of maroon rings visible in the ophthalmoscope. These rings appeared on the external edge of the lens and progressed little by little to its center. Anatomopathological studies of the lenses confirmed that these brown rings correspond well to the characteristic histological lesions of galactosemic cataracts. Photographs taken with the aid of a retinograph facilitated the comparison of the evolution of the lesions.
Statistical calculations according to the .chi.^2 method permit an evaluation of the significance of the results obtained for each of the treatments compared to those for non-treated animals.

capillary resistance = assay: Capillaroprotecting effects: capillary resistance; assay type: in vivo, male OFA EOPS rats
Method: as §1
The capillary resistance was determined by a variant of the method of Charlier et al, Arch. Inter. Physiol.

## C[C@@H]1O[C@@H](OC[C@H]2O[C@@H](Oc3c(-c4ccc(O)c(O)c4)oc4cc(O)cc(O)c4c3=O)[C@H](O)[C@@H](O)[C@@H]2O)[C@@H]2OC(C)(C)O[C@@H]2[C@H]1O [No. 1, 3-O-(2,3-O,O-isopropylidene-6-α-L-rhamnosyl-β-D-glucosyl)-quercetin]
Solubilities in water
  solubility: 7000 µg/mL (≈ 10.8 mM)
Aldose Reductase; 10^-4 mole/l
  inhibition at 100 µM: 82%
Aldose Reductase; 10^-5 mole/l
  inhibition at 10 µM: 32%
Wistar EOPS rat
  arterial pressure and cardiac frequency, time of maximum: attain their maximum values at the twelfth minute of the perfusion
  cause of death: death occurs by respiratory arrest
  hemodynamic effects: brief, low intensity hypotension is observed accompanied by bradycardia
Wistar EOPS rat; for 30 min
  minimum lethal dose: ~15 mg/kg/min
Capillary permeability; 400 mg/kg i.p.
  percentage reduction of capillary permeability: 30%
Capillary permeability; 800 mg/kg i.p.
  percentage reduction of capillary permeability: 37%
Carragenin edema; 75 mg/kg i.p.
  % inhibition of carragenin edema: 5%
Carragenin edema; 150 mg/kg i.p.
  % inhibition of carragenin edema: 21%
Carragenin edema; 200 mg/kg i.p.
  % inhibition of carragenin edema: 0%
Carragenin edema; 100 mg/kg i.p., physiological serum, 1/2 h, read-out: % inhibition of carragenin edema
  inhibition in vivo at 100 mg/kg: 33%
Carragenin edema; 200 mg/kg i.p., physiological serum, 1/2 h, read-out: % inhibition of carragenin edema
  inhibition in vivo at 200 mg/kg: 0%
Carragenin edema; 300 mg/kg i.p., physiological serum, 1/2 h, read-out: % inhibition of carragenin edema
  inhibition in vivo at 300 mg/kg: 30%
Carragenin edema; 1 h, pH 7, read-out: % inhibition of carragenin edema, 75 mg/kg i.p., borate buffer pH 7, 1 h
  inhibition in vivo at 75 mg/kg: 18%
Carragenin edema; 1 h, pH 7, read-out: % inhibition of carragenin edema, 75 mg/kg i.p., borate buffer pH 7, 1 h 1/2
  inhibition in vivo at 75 mg/kg: 29%
Carragenin edema; 1 h, pH 7, read-out: % inhibition of carragenin edema, 150 mg/kg i.p., borate buffer pH 7, 1 h
  inhibition in vivo at 150 mg/kg: 25%
Carragenin edema; 1 h, pH 7, read-out: % inhibition of carragenin edema, 150 mg/kg i.p., borate buffer pH 7, 1 h 1/2
  inhibition in vivo at 150 mg/kg: 40%
Carragenin edema; 1 h, pH 7, read-out: % inhibition of carragenin edema, 200 mg/kg i.p., borate buffer pH 7, 1 h
  inhibition in vivo at 200 mg/kg: 16%
Carragenin edema; 1 h, pH 7, read-out: % inhibition of carragenin edema, 200 mg/kg i.p., borate buffer pH 7, 1 h 1/2
  inhibition in vivo at 200 mg/kg: 37%
Carragenin edema; 1 h, read-out: % inhibition of carragenin edema, 100 mg/kg i.p., physiological serum, 1 h
  inhibition in vivo at 100 mg/kg: 24%
Carragenin edema; 1 h, read-out: % inhibition of carragenin edema, 200 mg/kg i.p., physiological serum, 1 h
  inhibition in vivo at 200 mg/kg: 0%
Carragenin edema; 1 h, read-out: % inhibition of carragenin edema, 300 mg/kg i.p., physiological serum, 1 h
  inhibition in vivo at 300 mg/kg: 37%
Carragenin edema; 2 h, pH 7, read-out: % inhibition of carragenin edema, 75 mg/kg i.p., borate buffer pH 7, 2 h
  inhibition in vivo at 75 mg/kg: 23%
Carragenin edema; 2 h, pH 7, read-out: % inhibition of carragenin edema, 150 mg/kg i.p., borate buffer pH 7, 2 h
  inhibition in vivo at 150 mg/kg: 34%
Carragenin edema; 2 h, pH 7, read-out: % inhibition of carragenin edema, 200 mg/kg i.p., borate buffer pH 7, 2 h
  inhibition in vivo at 200 mg/kg: 38%
Carragenin edema; 2 h, read-out: % inhibition of carragenin edema, 100 mg/kg i.p., physiological serum, 2 h
  inhibition in vivo at 100 mg/kg: 5%
Carragenin edema; 2 h, read-out: % inhibition of carragenin edema, 200 mg/kg i.p., physiological serum, 2 h
  inhibition in vivo at 200 mg/kg: 8%
Carragenin edema; 2 h, read-out: % inhibition of carragenin edema, 300 mg/kg i.p., physiological serum, 2 h
  inhibition in vivo at 300 mg/kg: 8%
Carragenin edema; 3 h, pH 7, read-out: % inhibition of carragenin edema, 75 mg/kg i.p., borate buffer pH 7, 3 h
  inhibition in vivo at 75 mg/kg: 20%
Carragenin edema; 3 h, pH 7, read-out: % inhibition of carragenin edema, 150 mg/kg i.p., borate buffer pH 7, 3 h
  inhibition in vivo at 150 mg/kg: 26%
Carragenin edema; 3 h, pH 7, read-out: % inhibition of carragenin edema, 200 mg/kg i.p., borate buffer pH 7, 3 h
  inhibition in vivo at 200 mg/kg: 30%
Carragenin edema; 3 h, read-out: % inhibition of carragenin edema, 100 mg/kg i.p., physiological serum, 3 h
  inhibition in vivo at 100 mg/kg: 7%
Carragenin edema; 3 h, read-out: % inhibition of carragenin edema, 200 mg/kg i.p., physiological serum, 3 h
  inhibition in vivo at 200 mg/kg: 8%
Carragenin edema; 3 h, read-out: % inhibition of carragenin edema, 300 mg/kg i.p., physiological serum, 3 h
  inhibition in vivo at 300 mg/kg: 16%
Carragenin edema; 4 h, pH 7, read-out: % inhibition of carragenin edema, 75 mg/kg i.p., borate buffer pH 7, 4 h
  inhibition in vivo at 75 mg/kg: 14%
Carragenin edema; 4 h, pH 7, read-out: % inhibition of carragenin edema, 150 mg/kg i.p., borate buffer pH 7, 4 h
  inhibition in vivo at 150 mg/kg: 19%
Carragenin edema; 4 h, pH 7, read-out: % inhibition of carragenin edema, 200 mg/kg i.p., borate buffer pH 7, 4 h
  inhibition in vivo at 200 mg/kg: 21%
Carragenin edema; 4 h, read-out: % inhibition of carragenin edema, 100 mg/kg i.p., physiological serum, 4 h
  inhibition in vivo at 100 mg/kg: 16%
Carragenin edema; 4 h, read-out: % inhibition of carragenin edema, 200 mg/kg i.p., physiological serum, 4 h
  inhibition in vivo at 200 mg/kg: 12%
Carragenin edema; 4 h, read-out: % inhibition of carragenin edema, 300 mg/kg i.p., physiological serum, 4 h
  inhibition in vivo at 300 mg/kg: 27%
Carragenin edema; 5 h, pH 7, read-out: % inhibition of carragenin edema, 75 mg/kg i.p., borate buffer pH 7, 5 h
  inhibition in vivo at 75 mg/kg: 25%
Carragenin edema; 5 h, pH 7, read-out: % inhibition of carragenin edema, 150 mg/kg i.p., borate buffer pH 7, 5 h
  inhibition in vivo at 150 mg/kg: 27%
Carragenin edema; 5 h, pH 7, read-out: % inhibition of carragenin edema, 200 mg/kg i.p., borate buffer pH 7, 5 h
  inhibition in vivo at 200 mg/kg: 30%
Carragenin edema; 5 h, read-out: % inhibition of carragenin edema, 100 mg/kg i.p., physiological serum, 5 h
  inhibition in vivo at 100 mg/kg: 20%
Carragenin edema; 5 h, read-out: % inhibition of carragenin edema, 200 mg/kg i.p., physiological serum, 5 h
  inhibition in vivo at 200 mg/kg: 15%
Carragenin edema; 5 h, read-out: % inhibition of carragenin edema, 300 mg/kg i.p., physiological serum, 5 h
  inhibition in vivo at 300 mg/kg: 30%
Carragenin edema; 6 h, pH 7, read-out: % inhibition of carragenin edema, 75 mg/kg i.p., borate buffer pH 7, 6 h
  inhibition in vivo at 75 mg/kg: 17%
Carragenin edema; 6 h, pH 7, read-out: % inhibition of carragenin edema, 150 mg/kg i.p., borate buffer pH 7, 6 h
  inhibition in vivo at 150 mg/kg: 28%
Carragenin edema; 6 h, pH 7, read-out: % inhibition of carragenin edema, 200 mg/kg i.p., borate buffer pH 7, 6 h
  inhibition in vivo at 200 mg/kg: 18%
Carragenin edema; 6 h, read-out: % inhibition of carragenin edema, 100 mg/kg i.p., physiological serum, 6 h
  inhibition in vivo at 100 mg/kg: 7%
Carragenin edema; 6 h, read-out: % inhibition of carragenin edema, 200 mg/kg i.p., physiological serum, 6 h
  inhibition in vivo at 200 mg/kg: 9%
Carragenin edema; 6 h, read-out: % inhibition of carragenin edema, 300 mg/kg i.p., physiological serum, 6 h
  inhibition in vivo at 300 mg/kg: 27%
Carragenin edema; read-out: % inhibition of carragenin edema, 75 mg/kg i.p., borate buffer pH 7, 1/2 h
  inhibition in vivo at 75 mg/kg: 18%
Carragenin edema; read-out: % inhibition of carragenin edema, 150 mg/kg i.p., borate buffer pH 7, 1/2 h
  inhibition in vivo at 150 mg/kg: 15%
Carragenin edema; read-out: % inhibition of carragenin edema, 200 mg/kg i.p., borate buffer pH 7, 1/2 h
  inhibition in vivo at 200 mg/kg: 9%
Galactosemic cataract; day 0
  percentage of animals which have not yet shown the appearance of cataracts: 100%
Galactosemic cataract; day 1
  percentage of animals which have not yet shown the appearance of cataracts: 100%
Galactosemic cataract; day 2
  percentage of animals which have not yet shown the appearance of cataracts: 87.5%
Galactosemic cataract; day 3
  percentage of animals which have not yet shown the appearance of cataracts: 81%
Galactosemic cataract; day 4
  percentage of animals which have not yet shown the appearance of cataracts: 50%
  significance compared to non-treated animals (chi^2): S
Galactosemic cataract; day 5
  percentage of animals which have not yet shown the appearance of cataracts: 37.5%
  significance compared to non-treated animals (chi^2): S
Galactosemic cataract; day 6
  percentage of animals which have not yet shown the appearance of cataracts: 37.5%
  significance compared to non-treated animals (chi^2): S
Galactosemic cataract; day 10
  percentage of animals which have not yet shown the appearance of cataracts: 37.5%
  significance compared to non-treated animals (chi^2): S
Galactosemic cataract; day 12
  percentage of animals which have not yet shown the appearance of cataracts: 28%
  significance compared to non-treated animals (chi^2): S
Galactosemic cataract; day 16
  percentage of animals which have not yet shown the appearance of cataracts: 19%
  significance compared to non-treated animals (chi^2): S
Galactosemic cataract; day -4
  percentage of animals which have not yet shown the appearance of cataracts: 100%
Capillary resistance; 100 mg/kg i.p.
  % of animals for which the effect is ≥ 25 u cm Hg/h: 50%
  capillary resistance, effect observed: 21.5 ± 4.6 u cm Hg/h
Capillary resistance; 200 mg/kg i.p.
  % of animals for which the effect is ≥ 25 u cm Hg/h: 90%
  capillary resistance, effect observed: 41.25 ± 15.3 u cm Hg/h
